Source: US20220152071A1, “MARKERS OF EFFICACY OF TOPOISOMERASE POISONS” (Northwestern University, priority 2019, published 2022)

Assays:
[1] = system: FANCB KO SNB19 cells; assay: Viability assay, FANCB KO cells; assay type: cell-based, human; settings: 5 μM, 72 hrs
Method: (§1) Single gene editing. To edit FANCB and RPS11, we used single guide RNAs that were enriched for both genes as well as the non-targeting controls. Briefly, these guides were synthesized by Synthego and following the protocol, we prepared the ribonucleoprotein complexes by mixing the guides (180 pmol) with recombinant Cas9 protein (Synthego) 20 pmol in […]. The complexes were allowed to form at room temp for 15 mins, and then […] of Opti-MEM I reduced serum medium and […] of lipofectamine Cas9 plus reagent were then added. Both, the cells and the formed ribonucleoprotein complexes, were seeded at the same time with 150,000 SNB19 cells in a T25 flask. The cells were incubated for 4 days.
(§2) Viability assay. […] Titre glo was added following incubation with drugs. (Cat No: G7572) and the viability of cells was analyzed 5 min later by measuring the luminescence. We normalized the intensity against DMSO treated cells of each cell line or PDX or the edited cell and then determined the survival. Pictures of these cells were also taken as shown in the source data figures.

[2] = system: RPS11 KO SNB19 cells; assay: Viability assay, RPS11 KO cells; assay type: cell-based, human; settings: 5 μM, 72 hrs
Method: as §1, §2

[3] = system: SNB19; assay: Viability assay (Titre glo), susceptible glioma cell line; assay type: cell-based, human; settings: etoposide 5 μM, 72 hrs
Method: as §2

[4] = system: GBM6; assay: Click-it Plus OPP nascent protein synthesis; assay type: cell-based, human; settings: GBM6, 5 μM, 24 hrs
[5] = system: BCL2, GBM6; assay: BCL2 expression by flow cytometry; assay type: cell-based, human; settings: GBM6, 24 hrs
[6] = system: resistant glioma cell lines; assay: Viability assay, resistant glioma cell lines; assay type: cell-based, human; settings: etoposide 5 μM, 72 hrs
Method: as §2

[7] = gliomas and brain metastases, systemic administration, human; cited from earlier work
[8] = system: GBM12; assay: Click-it Plus OPP nascent protein synthesis; assay type: cell-based, human; settings: GBM12, 5 μM, 24 hrs
[9] = system: APAF1, SNB19 WT and non-targeting control cells; assay: APAF1 expression (qRT-PCR, Western blot); assay type: cell-based, human
Method: (§3) Western blot. […] The cells were lysed using water bath ultrasonicator for 4 mins. Cell lysate were cleared by centrifugation. We measured the concentration of protein in lysates. Denatured lysates were loaded into 4-20% Tris-glycine gels (Novex) and separated at 180V for 2 hrs. The gels were transferred unto a PVDF membrane by semi-dry blotting for 1 hr. We blocked the membrane in 5% non-fat milk TBST buffer for 30 mins and incubated with primary antibodies RPS11 (1:500), FANCB (1:500), GAPDH or ACTB (1:1500) in 5% BSA respectively over night shaking at 4° C. Primary antibodies were removed and we added the secondary polyclonal HRP (1:20,000) in TBST and incubated shaking for 2 hrs at room temp. The membrane were washed 6× in TBST and then developed with ECL (Cat No: 1705061) and band imaged on a Bio-Rad Chemi-doc imaging system. qRT-PCR. […] The total RNA was extracted using Zymo Research kit (Direct-zol RNA Miniprep Plus, Cat no: R2070). The quality of the RNA was determined by RNA pico bioanalyzer measuring the 18S and 28S ribosome. Using the superscript III first strand synthesis system (Cat no: 18080-051), we generated cDNA and performed qPCR with APAF1 and ACTB primers in triplicates and fold change of expression of APAF1 were normalized against actin B (ACTB).

[10] = system: APAF1, RPS11 KO cells; assay: APAF1 expression (qRT-PCR, Western blot); assay type: cell-based, human
Method: as §3

[11] = system: BID, susceptible glioma cells; assay: BID expression by flow cytometry; assay type: cell-based, human; settings: susceptible glioma cells compared to resistant cells, 24 hrs
Method: (§4) Click-it Plus OPP Assay, Apoptosis Assay and Flow Cytometry. To determine if nascent protein synthesis is impaired upon editing of RPS11 and FANCB. We seeded edited cells SgRPS11, SgFANCB, wild type SNB19 and the non-targeting controls in a 96 well plate with black covers overnight at 4,000 cells/well. […] Following the protocol from Life technologies (Cat No: C10456), we added the Click-it OPP (1:1000), or Caspase 3/7 (Cat no: C10427) or with antibodies against BID, BCL2 or APAF1 for 30 mins. After washing cells were fixed and primary antibodies were detected secondary antibodies conjugated to Alexa Flour 488. The fluorophore intensity was measured by flow cytometry (LSR Fortessa 1 analyzer). As a complementary approach, the labelled cells were also imaged in a fluorescent microscope (Nikon Ti2 Widefield).

[12] = system: MES83; assay: Etoposide dose-response viability; assay type: cell-based, human; settings: MES83, dose-response in vitro 72 hrs
Method: as §2

[13] = system: U251; assay: Etoposide dose-response viability; assay type: cell-based, human; settings: U251, dose-response in vitro 72 hrs
Method: as §2

[14] = system: GBM43; assay: Etoposide dose-response viability; assay type: cell-based, human; settings: GBM43, dose-response in vitro 72 hrs
Method: as §2

[15] = system: GBM12; assay: Etoposide dose-response viability; assay type: cell-based, human; settings: GBM12, dose-response in vitro 72 hrs
Method: as §2

[16] = system: GBM6; assay: Etoposide dose-response viability; assay type: cell-based, human; settings: GBM6, dose-response in vitro 72 hrs
Method: as §2

[17] = system: SNB19 cells; assay: Genome-wide CRISPR KO screen, etoposide selection; assay type: cell-based, human; settings: etoposide 5 μM, 14 days, CRISPR KO library SNB19 cells
Method: Large scale cell culture and expansion. To perform the CRISPR screening, SNB19 cells were expanded to 500 million and then spinfected with 70,000sgRNA. After spinfection, the cells are selected with 0.6 μg/ml of puromycin for 4 days. This selection is aimed at the cells that have been rightly integrated with the sgRNA that incorporates the puromycin cassette into their genome. […] We used 50 million of selected cells for the extraction of genomic DNA. The base sgRNA representation is obtained by amplification of the sgRNA with unique barcoded primers. The remaining 100 million cells were expanded for 2 days, once cells grew to 200 million. […] After 14 days, the cells were harvested, the gDNA extracted, and the sgRNA amplified with another unique barcoded primer.

[18] = system: SNB19; assay: Click-it Plus OPP nascent protein synthesis; assay type: cell-based, human; settings: SNB19, 5 μM, 24 hrs
Method: as §4

[19] = system: BCL2, GBM12; assay: BCL2 expression by flow cytometry; assay type: cell-based, human; settings: GBM12, 24 hrs
Method: as §4

[20] = system: U251; assay: Click-it Plus OPP nascent protein synthesis; assay type: cell-based, human; settings: U251, 5 μM, 24 hrs

## COc1cccc2c1C(=O)c1c(O)c3c(c(O)c1C2=O)C[C@@](O)(C(=O)CO)C[C@@H]3O[C@H]1C[C@H](N)[C@H](O)[C@H](C)O1 [doxorubicin]
[1]
  susceptibility (viability): acquired resistance
[2]
  susceptibility (viability): resistant

## COc1cc([C@@H]2c3cc4c(cc3[C@@H](O[C@@H]3O[C@@H]5CO[C@@H](C)O[C@H]5[C@H](O)[C@H]3O)[C@H]3COC(=O)[C@H]23)OCO4)cc(OC)c1O [etoposide]
[3]
  cells death: 80%
[4]
  nascent proteins following etoposide treatment: no decrease in nascent proteins
[5]
  BCL2 expression following etoposide treatment: increase
[6]
  cell death: minimal cell death
[1]
  susceptibility (viability): acquired resistance
[7]
  intratumoral concentration in tumor tissue: 2 to 6 µM
[8]
  nascent proteins following etoposide treatment: no decrease in nascent proteins
[9]; SNB19 WT and non-targeting control cells, 24 hrs
  APAF1 transcript following etoposide treatment: significant induction
[9]; SNB19 wild-type and non-targeting control cells
  APAF1 protein levels following etoposide treatment: increased
[10]
  APAF1 protein following etoposide treatment: decrease
[10]; 24 hrs
  APAF1 transcript following etoposide treatment: no significant expression changes
[2]
  susceptibility (viability): resistant
[11]
  BID expression following etoposide treatment: increased BID expression
[12]
  susceptibility to etoposide: susceptible
[13]
  susceptibility to etoposide: susceptible
[14]
  susceptibility to etoposide: less sensitive
[15]
  susceptibility to etoposide: resistance
[16]
  susceptibility to etoposide: resistance
[17]
  cells surviving treatment: less than 1%
[18]
  nascent proteins following etoposide treatment: decrease in nascent proteins
[19]
  BCL2 expression following etoposide treatment: increase
[20]
  nascent proteins following etoposide treatment: decrease in nascent proteins
